In patent US12459921B2, “Isoindoline compound, preparation method, pharmaceutical composition and use thereof” (SHANGHAI INSTITUTE OF MATERIA MEDICA, CHINESE ACADEMY OF …, priority 2018, dated 2025) one finds IC50 data, which are given here for 31 compounds.

For the test, the system named is MM.1S cells. The test can be described thus: Inhibitory effect on the proliferation of MM.1S, MTS cell viability test. The note with it: Homo sapiens, MM1.S, 168 h, multiple myeloma MM.1S cells, 7 days incubation, read-out: Tumor cell inhibitory activity. Type of test: cell-based. In a few lines:
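MM.1S cells (20,000/well, RPMI 1640 with 10% FBS) exposed to 5-fold compound dilutions at 0.2% DMSO for 7 days at 37° C, 5% CO2. MTS added for 3-4 h; OD490-OD690 gave inhibition versus DMSO, IC50 fitted, mean of three experiments.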
On the technique in general: Formazan colour is commonly taken as a measure of viable cells.

On to `N#CC1(c2c(Cl)cccc2Cl)CCN(CCCOc2cccc3c2CN(C2CCC(=O)NC2=O)C3=O)CC1` (stereo not shown) [Example 76, 4-(2,6-chlorophenyl)-1-(3-((2-(2,6-dioxopiperidine-3-)-1-oxoisoindoline-4-)oxy)propyl)piperidine-4-carbonitrile], for which the IC50 was under 100 nM. With `N#CC1(c2ccc(Cl)cc2)CCN(CCCCOc2cccc3c2CN(C2CCC(=O)NC2=O)C3=O)CC1` (stereo not shown) [Example 77, 4-(4-chlorophenyl)-1-(4-((2-(2,6-dioxopiperidine-3-)-1-oxoisoindoline-4-)oxy)butyl)piperidine-4-carbonitrile], the IC50 lay in the range of 100 to 1000 nM.

Take `N#CC1(c2ccccc2OC(F)(F)F)CCN(CCCOc2cccc3c2CN(C2CCC(=O)NC2=O)C3=O)CC1` (stereo not shown) [Example 78, 1-(3-((2-(2,6-dioxopiperidine-3-)-1-oxoisoindoline-4-)-oxy-)propyl)-4-(2-trifluoromethoxyphenyl)piperidine-4-carbonitrile]: the IC50 is under 100 nM. With `N#CC1(c2cccc(Cl)c2)CCN(CCCCCOc2cccc3c2CN(C2CCC(=O)NC2=O)C3=O)CC1` (stereo not shown) [Example 79, 4-(3-chlorophenyl)-1-(5-((2-(2,6-dioxopiperidine-3-)-1-oxoisoindoline-4-)oxy)pentyl)piperidine-4-carbonitrile], the IC50 was under 100 nM. Then `C[C@]1(N2Cc3c(OCCCN4CCC(C#N)(c5ccccc5Cl)CC4)cccc3C2=O)CCC(=O)NC1=O` [Example 80, (S)-4-(2-chlorophenyl)-1-(3-((2-(3-methyl-2,6-dioxopiperidine-3-)-1-oxoisoindoline-4-)oxy)propyl)piperidine-4-carbonitrile], with 1000 to 20000 nM; and `N#CC1(c2ccc(Cl)cc2)CCN(CCCCCOc2cccc3c2CN(C2CCC(=O)NC2=O)C3=O)CC1` (stereo not shown) [Example 81, 4-(4-chlorophenyl)-1-(5-((2-(2,6-dioxopiperidine-3-)-1-oxoisoindoline-4-)oxy)pentyl) piperidine-4-carbonitrile], with under 100 nM.

In the case of `N#CC1(c2ccccc2Cl)CCN(C(=O)CCCOc2cccc3c2CN(C2CCC(=O)NC2=O)C3=O)CC1` (stereo not shown) [Example 82, 4-(2-chlorophenyl)-1-(4-((2-(2,6-dioxopiperidine-3-)-1-oxoisoindoline-4-)oxy)butyryl)piperidine-4-carbonitrile], the IC50 is 100 to 1000 nM. Then `N#CC1(c2cccc(Cl)c2)CCN(C(=O)CCCOc2cccc3c2CN(C2CCC(=O)NC2=O)C3=O)CC1` (stereo not shown) [Example 83, 4-(3-chlorophenyl)-1-(4-((2-(2,6-dioxopiperidine-3-)-1-oxoisoindoline-4-)oxy)butyryl) piperidine-4-carbonitrile], with under 100 nM; and `N#CC1(c2ccc(Cl)cc2)CCN(C(=O)CCCOc2cccc3c2CN(C2CCC(=O)NC2=O)C3=O)CC1` (stereo not shown) [Example 84, 4-(4-chlorophenyl)-1-(4-((2-(2,6-dioxopiperidine-3-)-1-oxoisoindoline-4-)oxy)butyryl)piperidine-4-carbonitrile], with 100 to 1000 nM; and `N#CC1(c2ccccc2Cl)CCN(C(=O)CCCCOc2cccc3c2CN(C2CCC(=O)NC2=O)C3=O)CC1` (stereo not shown) [Example 85, 4-(2-chlorophenyl)-1-(5-((2-(2,6-dioxopiperidine-3-)-1-oxoisoindoline-4-)oxy)valeryl)piperidine-4-carbonitrile], with under 100 nM. Then `N#CC1(c2cccc(Cl)c2)CCN(C(=O)CCCCOc2cccc3c2CN(C2CCC(=O)NC2=O)C3=O)CC1` (stereo not shown) [Example 87, 4-(3-chlorophenyl)-1-(5-((2-(2,6-dioxopiperidine-3-)-1-oxoisoindoline-4-)oxy)valeryl)piperidine-4-carbonitrile], with under 100 nM; and `N#CC1(c2ccccc2OC(F)(F)F)CCN(C(=O)CCCOc2cccc3c2CN(C2CCC(=O)NC2=O)C3=O)CC1` (stereo not shown) [Example 90, 1-(4-((2-(2,6-dioxopiperidine-3-)-1-oxoisoindoline-4-)-oxy-)butyryl)-4-(2-trifluoromethoxyphenyl)piperidine-4-carbonitrile], with 1000 to 20000 nM.

Regarding `N#CC1(c2ccccc2Cl)CCN(CCCCc2cccc3c2CN(C2CCC(=O)NC2=O)C3=O)CC1` (stereo not shown) [Example 91, 4-(2-chlorophenyl)-1-(4-(2-(2,6-dioxopiperidine-3-)-1-oxoisoindoline-4-)butyl)piperidine-4-carbonitrile], the IC50 is under 100 nM.

`N#CC1(c2ccccc2Cl)CCN(CCCCCc2cccc3c2CN(C2CCC(=O)NC2=O)C3=O)CC1` (stereo not shown) [Example 92, 4-(2-chlorophenyl)-1-(5-(2-(2,6-oxopiperidine-3-)-1-oxoisoindoline-4-)pentyl)piperidine-4-carbonitrile]: the IC50 is under 100 nM. Then `N#CC1(c2cccc(Cl)c2)CCN(CCCCc2cccc3c2CN(C2CCC(=O)NC2=O)C3=O)CC1` (stereo not shown) [Example 93, 4-(3-chlorophenyl)-1-(4-(2-(2,6-dioxopiperidine-3-)-1-oxoisoindoline-4-)butyl)piperidine-4-carbonitrile], with under 100 nM; and `N#CC1(c2cccc(OC(F)(F)F)c2)CCN(CCCCCc2cccc3c2CN(C2CCC(=O)NC2=O)C3=O)CC1` (stereo not shown) [Example 94, 1-(5-(2-(2,6-dioxopiperidine-3-)-1-oxoisoindoline-4-)pentyl)-4-(3-trifluoromethoxyphenyl) piperidine-4-carbonitrile], with under 100 nM. Then `N#CC1(c2ccc(Cl)cc2)CCN(CCCCc2cccc3c2CN(C2CCC(=O)NC2=O)C3=O)CC1` (stereo not shown) [Example 95, 4-(4-chlorophenyl)-1-(4-(2-(2,6-dioxopiperidine-3-)-1-oxoisoindoline-4-)butyl)piperidine-4-carbonitrile], with under 100 nM; and `N#CC1(c2ccc(OC(F)(F)F)cc2)CCN(CCCCCc2cccc3c2CN(C2CCC(=O)NC2=O)C3=O)CC1` (stereo not shown) [Example 96, 1-(5-(2-(2,6-dioxopiperidine-3-)-1-oxoisoindoline-4-)pentyl)-4-(4-trifluoromethoxyphenyl)piperidine-4-carbonitrile], with under 100 nM; and `N#CC1(c2cccc(OC(F)(F)F)c2)CCN(CCCCc2cccc3c2CN(C2CCC(=O)NC2=O)C3=O)CC1` (stereo not shown) [Example 97, 1-(4-(2-(2,6-dioxopiperidine-3-)-1-oxoisoindoline-4-)butyl)-4-(3-trifluoromethoxyphenyl) piperidine-4-carbonitrile], with under 100 nM.

For `N#CC1(c2ccccc2Cl)CCN(CCCCCCc2cccc3c2CN(C2CCC(=O)NC2=O)C3=O)CC1` (stereo not shown) [Example 98, 4-(2-chlorophenyl)-1-(6-(2-(2,6-dioxopiperidine-3-)-1-oxoisoindoline-4-)hexyl)piperidine-4-carbonitrile], the IC50 is under 100 nM. Then `N#CC1(c2ccc(OC(F)(F)F)cc2)CCN(CCCCc2cccc3c2CN(C2CCC(=O)NC2=O)C3=O)CC1` (stereo not shown) [Example 99, 1-(4-(2-(2,6-dioxopiperidine-3-)-1-oxoisoindoline-4-)butyl)-4-(4-trifluoromethoxyphenyl)piperidine-4-carbonitrile], with under 100 nM; and `N#CC1(c2cccc(Cl)c2)CCN(CCCCCCc2cccc3c2CN(C2CCC(=O)NC2=O)C3=O)CC1` (stereo not shown) [Example 100, 4-(3-chlorophenyl)-1-(6-(2-(2,6-dioxopiperidine-3-)-1-oxoisoindoline-4-)hexyl)piperidine-4-carbonitrile], with under 100 nM.

As to `N#CC1(c2ccc(Cl)cc2Cl)CCN(CCCCc2cccc3c2CN(C2CCC(=O)NC2=O)C3=O)CC1` (stereo not shown) [Example 101, 4-(2,4-chlorophenyl)-1-(4-(2-(2,6-dioxopiperidine-3-)-1-oxoisoindoline-4-)butyl)piperidine-4-carbonitrile], the IC50 is under 100 nM. Then `N#CC1(c2ccc(Cl)cc2)CCN(CCCCCCc2cccc3c2CN(C2CCC(=O)NC2=O)C3=O)CC1` (stereo not shown) [Example 102, 4-(4-chlorophenyl)-1-(6-(2-(2,6-dioxopiperidine-3-)-1-oxoisoindoline-4-)hexyl)piperidine-4-carbonitrile], with under 100 nM; and `O=C1CCC(N2Cc3c(CCCCCN4CCCc5ccccc54)cccc3C2=O)C(=O)N1` (stereo not shown) [Example 103, 3-(4-(5-(3,4-dihydroquinoline-1(2H))pentyl)-1-oxoisoindoline-2-)piperidine-2,6-dione], with 100 to 1000 nM. Then `CC1CCc2cc(F)ccc2N1CCCCCc1cccc2c1CN(C1CCC(=O)NC1=O)C2=O` (stereo not shown) [Example 104, 3-(4-(5-(6-fluoro-2-methyl-3,4-dihydroquinoline-1(2H))pentyl)-1-oxoisoindoline-2-) piperidine-2,6-dione], with 100 to 1000 nM. Then `O=C1CCC(N2Cc3c(CCCCCN4CCOc5ccccc54)cccc3C2=O)C(=O)N1` (stereo not shown) [Example 105, 3-(4-(5-(2,3-dihydro-4H-benzo[b][1,4]oxazine-4-)pentyl)-1-oxoisoindoline-2-)piperidine-2,6-dione], with 100 to 1000 nM; and `O=C1CCC(N2Cc3c(CCCCCN4CCCc5cc(Br)ccc54)cccc3C2=O)C(=O)N1` (stereo not shown) [Example 106, 3-(4-(5-(6-bromo-3,4-dihydroquinoline-1(2H))pentyl)-1-oxoisoindoline-2-)piperidine-2,6-dione], with 100 to 1000 nM. Take `Cc1cc(OCCCCOc2cccc3c2C(=O)N(C2CCC(=O)NC2=O)C3=O)c2ccccc2n1` (stereo not shown) [Example 108, 2-(2,6-dioxopiperidine-3-)-4-(4-((2-methylquinoline-4-)oxy)butoxy)isoindoline-1,3-dione]: the IC50 lay within 1000 to 20000 nM.

Consider `O=C1CCC(N2Cc3c(CCCCCN4CCCc5ccc(Cl)cc54)cccc3C2=O)C(=O)N1` (stereo not shown) [Example 109, 3-(4-(5-(7-chloro-3,4-dihydroquinoline-1(2H))pentyl)-1-oxoisoindoline-2-)piperidine-2,6-dione], for which the IC50 is 1000 to 20000 nM. Then `O=C1CCC(N2Cc3c(CCCCCN4CCOc5cc(Br)ccc54)cccc3C2=O)C(=O)N1` (stereo not shown) [Example 110, 3-(4-(5-(7-bromo-2,3-dihydro-4H-benzo[b][1,4]oxazine-4-)pentyl)-1-oxoisoindoline-2-)piperidine-2,6-dione], with under 100 nM.
